Laboratory results published in US11590117B2, “Treatment of a hematologic malignancy with 2-(4-chlorophenyl)-n-((2-(2,6-dioxopiperidin-3-yl)-1-oxoisoindolin-5-yl)methyl)-2,2-difluoroacetamide” (priority 2016, dated 2023).

How the values were obtained:
[1] = test system: Bone marrow mononuclear cells (BMMCs) from high risk MDS patients; assay: MDS liquid culture, viable cell counting; type: cell-based, human; details: 24 hours exposure, 37, 111, 333 and 1000 nM, dose dependent, maintained at least a week
Method: (§1) Methods. The effect of Compound 1 on high risk MDS samples was measured in an in vitro liquid culture as well as by colony assays in order to better define its effect on stem/progenitor cells. Bone marrow mononuclear cells (BMMCs) from high risk MDS patients were cultured in vitro in CellGro medium (GellGenix) supplemented with hLDL (40 μg/mL), SCF (50 ng/mL), FLT3 […] (50 ng/mL), IL-3 (10 ng/mL), IL-6 (25 ng/mL) and TPO (100 ng/mL), all from Peprotech. During culture, cells were exposed to different concentrations of Compound 1 (37, 111, 333 and 1000 nM) or DMSO control. After 24 hours, cells were washed twice to remove compound and maintained in culture up to one week, performing viable cell counting on days 1, 3 and 7. Just after compound washout, […] per condition were collected for colony forming assays and another […] were stained for intracellular flow cytometry.

selected AML cell lines = assay: Annexin V/7-AAD flow cytometry apoptosis assay, panel of selected AML cell lines; type: cell-based, human; details: after 24 and 48 hours, in 4 out of the 5 cell lines evaluated
Method: Cell Apoptosis Assays: The ability of Compound 1 to induce apoptosis was assessed in selected AML cell lines and healthy PBMCs at the time points and compound concentrations indicated. For Annexin V/7-AAD readout by flow cytometry, AML cell lines were plated into flat bottom 96-well plates (BD Falcon) at a seeding density of 0.1 to 0.3×10^6 cells per mL in 200 μL complete media. Compound 1 was dispensed onto the plates and the cells were incubated for the times indicated. For frozen PBMCs, cells were thawed as previously described and plated at a seeding density of 1×10^6 cells per mL in 200 μL on Corning® BioCoat™ T-Cell Activation Anti-Human CD3 96-well plates (Corning Inc., Corning, N.Y.). Compound 1 was dispensed onto the plates and the cells were incubated for the times indicated. […] One hundred microliters of Annexin V/7-AAD buffer was added per well and the cells incubated for 15 minutes before being analyzed using the Attune Flow Cytometer (Life Technologies, Carlsbad, Calif.). For caspase 3/7 activity, the remaining 100 μL was incubated with CellEvent™ Caspase-3/7 Green ReadyProbes® Reagent (1:1000 dilution; Molecular Probes) for 15 minutes before being analyzed using the Attune Flow Cytometer. […]
Compound 1 Induces Apoptosis in Acute Myeloid Leukemia Cell Lines. […] 0.01 μM and 0.1 μM and apoptosis was assessed over time.

MDS progenitor cells = assay: MDS colony forming assay in Methocult; type: cell-based, human; details: 24 hours exposure; compared with liquid culture
Method: as §1
For colony forming assays cells were seeded in Methocult media (Stem Cell Technologies), incubated at 37° C. during 14 days and scored by automatic counting using StemVision (Stem Cell Technologies).

SR = assay: CellTiter-Glo (CTG) cell proliferation assay, 72 hours; type: cell-based; details: Homo sapiens, Acute Lymphoblastic Leukemia
Method: (§2) Preparation of Solutions of Test Article: Compounds were plated into black 384-well plates (Corning Inc.) to a final DMSO volume of 0.1% assuming a maximal volume of 50 μL. A 10-point dose response starting at 10 μM with a 1:3 dilution was printed in duplicate by acoustic dispense using the EDC ATS-100 platform.
(§3) Cell Proliferation Assays: The effect of Compound 1 on the proliferation/viability of the hematological cell lines (Table 1 Table, Table 2 and Table 3), THLE-2, or PBMCs was assessed after 72 hours incubation using CTG (Promega), according to manufacturer's instructions. Hematological cell lines were dispensed into compound plates by a Multidrop™ Combi Reagent Dispenser (Thermo Scientific, Waltham, Mass.) at a concentration of 0.1 to 0.3×10^6 cells per mL in a 50 μL total volume. THLE-2 cells were seeded out at 1000 cells per well in 50 μL volume and incubated for 72 hours. At 72 hours, 25 μL per well of CTG was dispensed by a Multidrop™ Combi Reagent Dispenser and adenosine triphosphate (ATP) release by viable cells was measured as relative luminescence units after 30 minutes using the Envision platform.

Namalwa = assay: as above; type: cell-based; details: Homo sapiens, Burkitt Lymphoma
Method: as §2, §3

DG-75 = assay: as above; type: cell-based; details: Homo sapiens, Burkitt Lymphoma
Method: as §2, §3

Karpas 231 = assay: as above; type: cell-based; details: Homo sapiens, Acute Lymphoblastic Leukemia
Method: as §2, §3

EB-1 = assay: as above; type: cell-based; details: Homo sapiens, EB1, Burkitt Lymphoma
Method: as §2, §3

U2932 = assay: as above; type: cell-based; details: Homo sapiens, Diffuse Large B-cell Lymphoma (activated B-cell like)
Method: as §2, §3

OCI-LY-10 = assay: as above; type: cell-based; details: Homo sapiens, OCI-Ly10, Diffuse Large B-cell Lymphoma (activated B-cell like)
Method: as §2, §3

HS-Sultan = assay: as above; type: cell-based; details: Homo sapiens, Burkitt Lymphoma
Method: as §2, §3

RC-K8 = assay: as above; type: cell-based; details: Homo sapiens, RCK8, Diffuse Large B-cell Lymphoma (activated B-cell like)
Method: as §2, §3

Raji = assay: as above; type: cell-based; details: Homo sapiens, Burkitt Lymphoma
Method: as §2, §3

Blue-1 = assay: as above; type: cell-based; details: Homo sapiens, Burkitt Lymphoma
Method: as §2, §3

Q: With O=C1CCC(N2Cc3cc(CNC(=O)C(F)(F)c4ccc(Cl)cc4)ccc3C2=O)C(=O)N1 (centres unmarked) [Compound 1, 2-(4-chlorophenyl)-N-((2-(2,6-dioxopiperidin-3-yl)-1-oxoisoindolin-5-yl)methyl)-2,2-difluoroacetamide] as the molecule, how does the “number of viable cells” value [1] read?
A: The value was “significantly reduced”.

Q: And the induction of apoptosis (selected AML cell lines)?
A: The induction of apoptosis was “marked induction of apoptosis”.

Q: And the “effect on MDS progenitor cells in colony forming assays” value (MDS progenitor cells)?
A: Its value is “more acute”.

Q: What about the IC50 (SR) of the same molecule?
A: Its IC50 is > 10 µM.

Q: And the IC50 (Namalwa)?
A: Its IC50 is 0.0746 µM.

Q: And the IC50 (DG-75)?
A: Its IC50 is > 10 µM.

Q: And the IC50 (Karpas 231)?
A: Its IC50 is 0.79 µM.

Q: And the IC50 (EB-1)?
A: Its IC50 is 0.0663 µM.

Q: What about the IC50 (U2932) of the same molecule?
A: Its IC50 is 0.904 µM.

Q: What about the IC50 (OCI-LY-10) of the same molecule?
A: Its IC50 is > 10 µM.

Q: What about the IC50 (HS-Sultan) of the same molecule?
A: Its IC50 is > 10 µM.

Q: What about the IC50 (RC-K8) of the same molecule?
A: Its IC50 is 0.956 µM.

Q: And the IC50 (Raji)?
A: Its IC50 is > 10 µM.

Q: And the IC50 (Blue-1)?
A: Its IC50 is 0.986 µM.
